In PMC12251549, “Engineering a Radiohybrid PSMA Ligand with an Albumin-Binding Moiety and Pharmacokinetic Modulation via an Albumin-Binding Competitor for Radiotheranostics” (Molecules, 2025):

Experiment: Biodistribution after intravenous co-injection of [125I]5 and [211At]6 (Table S2)
Type: in vivo, normal mice (ddY)
Conditions: normal mice; for Biodistribution of radioactivity: Blood / Biodistribution of radioactivity: Bone / Biodistribution of radioactivity: Brain / Biodistribution of radioactivity: Heart / Biodistribution of radioactivity: Kidney / Biodistribution of radioactivity: L. Intestine / Biodistribution of radioactivity: Liver / Biodistribution of radioactivity: Lung / Biodistribution of radioactivity: Muscle / Biodistribution of radioactivity: Neck / Biodistribution of radioactivity: Pancreas / Biodistribution of radioactivity: S. Intestine / Biodistribution of radioactivity: Spleen / Biodistribution of radioactivity: Stomach: i.v.
Procedure: [^67Ga]Ga-PSMA-617 (37 kBq) and [^125I]5 (37 kBq) or [^125I]5 (37 kBq) and [^211At]6 (37 kBq) were intravenously co-administered into three or four normal mice at each timepoint (6 weeks male ddY mice, 28–30 g, Japan SLC, Inc., Hamamatsu, Japan). Mice were sacrificed at 10 min, 1 h, 4 h, and 24 h ([^67Ga]Ga-PSMA-617 and [^125I]5) or at 10 min, 1 h, 4 h, 12 h, and 24 h ([^125I]5 and [^211At]6) postinjection of the radiolabeled compounds. Tissues of interest were removed and weighed, and the radioactivity of ^67Ga and ^125I and ^125I and ^211At were determined with an auto well gamma counter (ARC-8001) and corrected for background radiation as described in the Cellular Uptake Experiments Section. To determine the amount and routes of the radioactivity excreted from the body for 24 h after the injection of radiolabeled compounds, mice were housed in metabolic cages (METABOLICA, SUGIYAMA-GEN Co., Ltd., Tokyo, Japan). Data are shown as the percentage of injected dose per gram of tissues (%ID/g) or %ID.

In vivo dehalogenation (radioactivity in stomach and neck): minimal deiodination or deastatination
Biodistribution of radioactivity: Blood (10 min after injection): 24.34 (0.27) % injected dose per gram
Biodistribution of radioactivity: Bone (10 min after injection): 2.42 (0.54) % injected dose per gram
Biodistribution of radioactivity: Brain (10 min after injection): 0.50 (0.04) % injected dose per gram
Biodistribution of radioactivity: Heart (10 min after injection): 4.48 (0.24) % injected dose per gram
Biodistribution of radioactivity: Kidney (10 min after injection): 5.27 (0.62) % injected dose per gram
Biodistribution of radioactivity: L. Intestine (10 min after injection): 0.84 (0.07) % injected dose per gram
Biodistribution of radioactivity: Liver (10 min after injection): 3.56 (0.01) % injected dose per gram
Biodistribution of radioactivity: Lung (10 min after injection): 13.97 (2.31) % injected dose per gram
Biodistribution of radioactivity: Muscle (10 min after injection): 1.01 (0.09) % injected dose per gram
Biodistribution of radioactivity: Neck (10 min after injection): 0.06 (0.01) % injected dose
Biodistribution of radioactivity: Pancreas (10 min after injection): 2.73 (0.25) % injected dose per gram
Biodistribution of radioactivity: S. Intestine (10 min after injection): 1.63 (0.23) % injected dose per gram
Biodistribution of radioactivity: Spleen (10 min after injection): 2.78 (0.58) % injected dose per gram
Biodistribution of radioactivity: Stomach (10 min after injection): 1.12 (0.10) % injected dose
Biodistribution of radioactivity: Blood (1 h after injection): 15.32 (1.28) % injected dose per gram
Biodistribution of radioactivity: Bone (1 h after injection): 1.67 (0.13) % injected dose per gram
Biodistribution of radioactivity: Brain (1 h after injection): 0.33 (0.09) % injected dose per gram
Biodistribution of radioactivity: Heart (1 h after injection): 4.10 (0.15) % injected dose per gram
Biodistribution of radioactivity: Kidney (1 h after injection): 4.66 (0.50) % injected dose per gram
Biodistribution of radioactivity: L. Intestine (1 h after injection): 0.89 (0.15) % injected dose per gram
Biodistribution of radioactivity: Liver (1 h after injection): 2.32 (0.32) % injected dose per gram
Biodistribution of radioactivity: Lung (1 h after injection): 8.89 (2.09) % injected dose per gram
Biodistribution of radioactivity: Muscle (1 h after injection): 1.24 (0.08) % injected dose per gram
Biodistribution of radioactivity: Neck (1 h after injection): 0.15 (0.04) % injected dose
Biodistribution of radioactivity: Pancreas (1 h after injection): 1.86 (0.33) % injected dose per gram
Biodistribution of radioactivity: S. Intestine (1 h after injection): 1.62 (0.30) % injected dose per gram
Biodistribution of radioactivity: Spleen (1 h after injection): 1.79 (0.34) % injected dose per gram
Biodistribution of radioactivity: Stomach (1 h after injection): 1.29 (0.50) % injected dose
Biodistribution of radioactivity: Blood (4 h after injection): 12.08 (0.95) % injected dose per gram
Biodistribution of radioactivity: Bone (4 h after injection): 1.83 (0.61) % injected dose per gram
Biodistribution of radioactivity: Brain (4 h after injection): 0.29 (0.04) % injected dose per gram
Biodistribution of radioactivity: Heart (4 h after injection): 3.88 (0.13) % injected dose per gram
Biodistribution of radioactivity: Kidney (4 h after injection): 5.20 (0.25) % injected dose per gram
Biodistribution of radioactivity: L. Intestine (4 h after injection): 1.26 (0.30) % injected dose per gram
Biodistribution of radioactivity: Liver (4 h after injection): 1.50 (0.16) % injected dose per gram
Biodistribution of radioactivity: Lung (4 h after injection): 7.01 (1.68) % injected dose per gram
Biodistribution of radioactivity: Muscle (4 h after injection): 1.20 (0.07) % injected dose per gram
Biodistribution of radioactivity: Neck (4 h after injection): 0.27 (0.09) % injected dose
Biodistribution of radioactivity: Pancreas (4 h after injection): 1.57 (0.21) % injected dose per gram
Biodistribution of radioactivity: S. Intestine (4 h after injection): 1.28 (0.16) % injected dose per gram
Biodistribution of radioactivity: Spleen (4 h after injection): 1.54 (0.22) % injected dose per gram
Biodistribution of radioactivity: Stomach (4 h after injection): 0.94 (0.29) % injected dose
Biodistribution of radioactivity: Blood (12 h after injection): 11.77 (1.29) % injected dose per gram
Biodistribution of radioactivity: Bone (12 h after injection): 1.88 (0.25) % injected dose per gram
Biodistribution of radioactivity: Brain (12 h after injection): 0.34 (0.07) % injected dose per gram
Biodistribution of radioactivity: Heart (12 h after injection): 3.62 (0.39) % injected dose per gram
Biodistribution of radioactivity: Kidney (12 h after injection): 6.62 (0.34) % injected dose per gram
Biodistribution of radioactivity: L. Intestine (12 h after injection): 0.87 (0.13) % injected dose per gram
Biodistribution of radioactivity: Liver (12 h after injection): 1.59 (0.12) % injected dose per gram
Biodistribution of radioactivity: Lung (12 h after injection): 8.00 (1.24) % injected dose per gram
Biodistribution of radioactivity: Muscle (12 h after injection): 1.32 (0.07) % injected dose per gram
Biodistribution of radioactivity: Neck (12 h after injection): 0.12 (0.09) % injected dose
Biodistribution of radioactivity: Pancreas (12 h after injection): 1.75 (0.45) % injected dose per gram
Biodistribution of radioactivity: S. Intestine (12 h after injection): 1.08 (0.07) % injected dose per gram
Biodistribution of radioactivity: Spleen (12 h after injection): 1.75 (0.21) % injected dose per gram
Biodistribution of radioactivity: Stomach (12 h after injection): 0.68 (0.09) % injected dose
Biodistribution of radioactivity: Blood (24 h after injection): 8.71 (0.20) % injected dose per gram
Biodistribution of radioactivity: Bone (24 h after injection): 1.26 (0.12) % injected dose per gram
Biodistribution of radioactivity: Brain (24 h after injection): 0.22 (0.02) % injected dose per gram
Biodistribution of radioactivity: Heart (24 h after injection): 2.91 (0.21) % injected dose per gram
Biodistribution of radioactivity: Kidney (24 h after injection): 5.06 (0.61) % injected dose per gram
Biodistribution of radioactivity: L. Intestine (24 h after injection): 0.63 (0.09) % injected dose per gram
Biodistribution of radioactivity: Liver (24 h after injection): 1.29 (0.05) % injected dose per gram
Biodistribution of radioactivity: Lung (24 h after injection): 5.00 (0.75) % injected dose per gram
Biodistribution of radioactivity: Muscle (24 h after injection): 1.08 (0.08) % injected dose per gram
Structure (SMILES): O=C([O-])CN1CCN(CC(=O)[O-])CCN(CC(=O)NC(CCCCNC(=O)CCCc2ccc([125I])cc2)C(=O)NCC2CCC(C(=O)NC(Cc3ccc4ccccc4c3)C(=O)NCCCCC(NC(=O)NC(CCC(=O)O)C(=O)O)C(=O)O)CC2)CCN(CC(=O)[O-])CC1.[Ga+3] (stereo not drawn) [[^125I]5]
